Type in all cases: cell-based
Experiment [1] addresses Cav2.2 (UniProt Q02294). As to the kind of experiment: Oocyte assay (Xenopus oocyte heterologous expression, current at fifth pulse P5). The note with it: Xenopus oocytes; fifth pulse (P5) of 5 Hz train, holding potential −100 mV. Here is the method:
The assay was performed on various calcium channels (e.g., Cav2.2 subfamily) whereby the modulation of the calcium channel was measured for each tested compound.

The target in experiment [2] is T1, Cav2.2 (Homo sapiens, UniProt Q00975).
T1 construct: expressed in transfected cells; host or cells: HEK-293T/17 (transient, FuGENE 6)
As to the kind of experiment: HEK assay (whole-cell patch clamp, transiently transfected HEK-293T/17 cells, pulses P1 and P5). Particulars: holding potential −100 mV. Put shortly:
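Whole-cell voltage clamp of HEK-293T/17 cells transiently transfected via FuGENE 6, then grown 24 h in 1% serum before recording. From −100 mV holding, trains of five 20–30 ms steps to about +10 mV at 5 Hz, repeated every 30 s; steady-state IC50s taken at first (P1) and fifth (P5) pulses to gauge use-dependent block.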

Experiment [3] addresses T2, human Cav2.2 (composed of the subunits α1, β3 and α2δ) (Homo sapiens, UniProt Q00975).
T2 construct: expressed in transfected cells
The experiment in a line: FLIPR assay (TSA201 cells stably transfected with human Cav2.2 and human Kir2.3, FLUO-4 Ca2+ signal, KCl depolarization). The note with it: 70 mM KCl depolarization, average value. In a few lines: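 TSA201 cells co-expressing Cav2.2 (α1, β3, α2δ) and Kir2.3 were loaded with FLUO-4 for 1 h at room temperature. Compound in HBSS with 1% DMSO was preincubated 15 min, then cells were depolarized with 70 mM final KCl (with CaCl2 and HEPES) and the Ca2+ fluorescence was read on FLIPR.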

Where [4] appears, read: fifth pulse (P5) of 5 Hz train, read-out: HEK Cav2.2 P5 IC50.
The mark [5] stands for this setting: first pulse (P1) of 5 Hz train, read-out: HEK Cav2.2 P1 IC50.

pIC50: −log10 of the molar value. Where a name gives a salt, the structure may show the parent alone. Read-outs that look alike come from different tables or passages of the source.

T1 sequence (Q00975 whole entry): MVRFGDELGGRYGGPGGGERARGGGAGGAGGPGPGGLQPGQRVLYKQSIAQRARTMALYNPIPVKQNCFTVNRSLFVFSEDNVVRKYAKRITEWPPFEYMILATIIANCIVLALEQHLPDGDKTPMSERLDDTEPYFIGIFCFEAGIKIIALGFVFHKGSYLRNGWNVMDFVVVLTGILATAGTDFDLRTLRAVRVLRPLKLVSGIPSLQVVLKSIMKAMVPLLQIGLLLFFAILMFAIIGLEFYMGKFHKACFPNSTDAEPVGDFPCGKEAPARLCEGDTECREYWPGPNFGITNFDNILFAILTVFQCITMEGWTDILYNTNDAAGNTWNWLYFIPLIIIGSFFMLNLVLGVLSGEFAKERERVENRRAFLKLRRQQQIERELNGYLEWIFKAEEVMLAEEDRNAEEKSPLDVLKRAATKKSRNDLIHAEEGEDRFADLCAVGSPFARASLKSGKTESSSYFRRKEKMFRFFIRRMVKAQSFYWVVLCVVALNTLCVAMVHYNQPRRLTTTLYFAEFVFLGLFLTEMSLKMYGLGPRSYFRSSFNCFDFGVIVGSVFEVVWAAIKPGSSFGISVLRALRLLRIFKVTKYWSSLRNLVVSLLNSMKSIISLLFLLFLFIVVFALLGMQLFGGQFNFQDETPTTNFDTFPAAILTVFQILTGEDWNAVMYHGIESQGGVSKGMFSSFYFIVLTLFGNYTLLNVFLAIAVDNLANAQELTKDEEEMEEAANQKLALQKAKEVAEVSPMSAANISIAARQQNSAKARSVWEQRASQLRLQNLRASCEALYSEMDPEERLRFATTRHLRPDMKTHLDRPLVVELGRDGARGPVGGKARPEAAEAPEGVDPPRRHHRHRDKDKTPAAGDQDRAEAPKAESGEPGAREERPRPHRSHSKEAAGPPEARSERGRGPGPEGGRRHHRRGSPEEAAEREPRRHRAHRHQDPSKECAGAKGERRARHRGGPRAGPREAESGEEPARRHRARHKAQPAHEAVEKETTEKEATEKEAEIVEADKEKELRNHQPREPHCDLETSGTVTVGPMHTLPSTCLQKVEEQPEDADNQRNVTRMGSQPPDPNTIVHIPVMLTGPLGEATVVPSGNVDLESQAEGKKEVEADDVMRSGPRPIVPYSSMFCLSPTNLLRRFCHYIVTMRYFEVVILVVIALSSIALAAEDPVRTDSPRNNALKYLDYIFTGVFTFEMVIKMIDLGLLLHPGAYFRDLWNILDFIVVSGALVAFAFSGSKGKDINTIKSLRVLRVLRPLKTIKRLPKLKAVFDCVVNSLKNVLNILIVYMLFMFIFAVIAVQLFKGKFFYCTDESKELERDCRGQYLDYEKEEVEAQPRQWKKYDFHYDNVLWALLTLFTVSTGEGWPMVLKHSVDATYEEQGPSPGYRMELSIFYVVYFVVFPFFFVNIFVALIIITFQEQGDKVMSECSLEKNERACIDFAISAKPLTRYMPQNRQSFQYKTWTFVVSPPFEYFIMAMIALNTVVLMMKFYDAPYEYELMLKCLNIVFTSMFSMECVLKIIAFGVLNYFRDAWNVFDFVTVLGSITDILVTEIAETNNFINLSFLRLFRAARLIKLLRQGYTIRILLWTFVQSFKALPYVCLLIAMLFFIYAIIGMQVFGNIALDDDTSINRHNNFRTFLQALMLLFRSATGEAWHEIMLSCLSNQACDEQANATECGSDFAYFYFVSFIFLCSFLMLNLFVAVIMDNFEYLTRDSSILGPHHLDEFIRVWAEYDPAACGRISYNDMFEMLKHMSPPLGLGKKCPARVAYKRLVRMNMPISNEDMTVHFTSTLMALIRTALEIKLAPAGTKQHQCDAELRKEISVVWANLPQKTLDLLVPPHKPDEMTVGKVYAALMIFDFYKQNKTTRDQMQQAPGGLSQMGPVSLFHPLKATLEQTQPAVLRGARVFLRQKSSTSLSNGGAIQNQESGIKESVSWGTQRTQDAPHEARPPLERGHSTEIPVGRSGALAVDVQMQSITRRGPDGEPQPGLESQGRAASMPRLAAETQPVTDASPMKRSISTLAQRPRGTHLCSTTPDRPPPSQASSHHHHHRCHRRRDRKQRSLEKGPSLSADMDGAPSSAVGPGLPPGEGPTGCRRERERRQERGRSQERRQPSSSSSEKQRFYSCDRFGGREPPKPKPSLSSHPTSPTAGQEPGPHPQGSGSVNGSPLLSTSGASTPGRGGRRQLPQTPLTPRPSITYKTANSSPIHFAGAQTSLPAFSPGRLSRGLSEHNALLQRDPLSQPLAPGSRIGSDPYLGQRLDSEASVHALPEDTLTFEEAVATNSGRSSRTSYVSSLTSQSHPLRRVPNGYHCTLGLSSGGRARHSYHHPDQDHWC
T1 sequence (P54284 whole entry partner): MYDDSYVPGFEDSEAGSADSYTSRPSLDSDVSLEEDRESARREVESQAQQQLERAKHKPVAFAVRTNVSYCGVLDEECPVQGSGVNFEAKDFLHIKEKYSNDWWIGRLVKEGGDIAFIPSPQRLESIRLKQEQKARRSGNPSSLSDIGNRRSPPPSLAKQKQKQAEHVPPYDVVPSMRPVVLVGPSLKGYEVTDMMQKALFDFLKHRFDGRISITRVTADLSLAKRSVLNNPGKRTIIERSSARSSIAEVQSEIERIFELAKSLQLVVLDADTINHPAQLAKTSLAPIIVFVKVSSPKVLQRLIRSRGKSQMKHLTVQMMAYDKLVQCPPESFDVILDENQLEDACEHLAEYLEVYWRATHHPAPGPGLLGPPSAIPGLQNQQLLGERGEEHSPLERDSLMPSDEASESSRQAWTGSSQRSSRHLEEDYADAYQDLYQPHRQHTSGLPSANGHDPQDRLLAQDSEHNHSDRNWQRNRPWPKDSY
T1 sequence (P54289 25-946 partner limits assumed): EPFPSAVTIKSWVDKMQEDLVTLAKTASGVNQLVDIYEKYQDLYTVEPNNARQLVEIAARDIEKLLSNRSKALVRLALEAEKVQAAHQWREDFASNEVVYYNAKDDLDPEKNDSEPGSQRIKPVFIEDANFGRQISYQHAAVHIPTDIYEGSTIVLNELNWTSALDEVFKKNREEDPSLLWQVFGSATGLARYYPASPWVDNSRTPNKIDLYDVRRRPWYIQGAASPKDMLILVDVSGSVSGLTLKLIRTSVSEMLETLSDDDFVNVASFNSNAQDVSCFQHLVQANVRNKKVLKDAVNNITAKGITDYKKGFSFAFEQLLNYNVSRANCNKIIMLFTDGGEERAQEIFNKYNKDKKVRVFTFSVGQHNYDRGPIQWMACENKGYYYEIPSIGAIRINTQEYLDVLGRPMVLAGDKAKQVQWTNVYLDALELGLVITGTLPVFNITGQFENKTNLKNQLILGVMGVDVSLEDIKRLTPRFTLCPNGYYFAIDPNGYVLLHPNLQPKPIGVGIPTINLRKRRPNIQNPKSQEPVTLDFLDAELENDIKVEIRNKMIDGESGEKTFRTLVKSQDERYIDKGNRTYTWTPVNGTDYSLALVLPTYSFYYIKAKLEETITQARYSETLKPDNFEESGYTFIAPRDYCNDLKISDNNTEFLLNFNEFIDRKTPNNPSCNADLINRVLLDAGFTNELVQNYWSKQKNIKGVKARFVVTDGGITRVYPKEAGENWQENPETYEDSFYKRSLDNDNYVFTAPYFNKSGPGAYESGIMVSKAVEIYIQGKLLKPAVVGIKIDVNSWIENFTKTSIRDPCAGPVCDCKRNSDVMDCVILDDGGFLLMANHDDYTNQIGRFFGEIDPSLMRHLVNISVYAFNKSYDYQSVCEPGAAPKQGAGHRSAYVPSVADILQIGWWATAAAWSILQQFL
T1 sequence (P54289 947-1103 partner limits assumed): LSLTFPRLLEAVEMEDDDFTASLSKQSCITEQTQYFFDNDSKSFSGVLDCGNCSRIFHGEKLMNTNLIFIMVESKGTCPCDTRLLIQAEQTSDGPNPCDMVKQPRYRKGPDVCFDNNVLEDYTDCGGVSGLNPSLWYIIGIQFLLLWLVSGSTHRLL
T2 sequence (Q00975 whole entry): as the sequence (Q00975 whole entry) above
T2 sequence (P54284 whole entry partner): as the sequence (P54284 whole entry partner) above
T2 sequence (P54289 25-946 partner limits assumed): as the sequence (P54289 25-946 partner limits assumed) above
T2 sequence (P54289 947-1103 partner limits assumed): as the sequence (P54289 947-1103 partner limits assumed) above

As usually defined, the pIC50 is the negative decadic logarithm of the IC50, by convention in mol/L. For `CN1CCCN(c2ccc(CN(C(=O)C(C)(C)C)c3ccc(F)cc3)cn2)CC1` [Compound 22, N-(4-Fluorophenyl)-2,2-dimethyl-N-[6-(4-methyl-[1,4]diazepan-1-yl)-pyridin-3-ylmethyl]-propionamide], the pIC50 was 4.74 in experiment [1], 5.24 in experiment [2] (setting [4]) and 4.56 in experiment [2] (setting [5]).
For `CC(C)(C)C(=O)N(Cc1ccc(N2CCC(N3CCOCC3)CC2)nc1)c1ccc(F)cc1` [Compound 33, N-(4-Fluorophenyl)-2,2-dimethyl-N-(4-morpholin-4-yl-3,4,5,6-tetrahydro-2H-[1,2′]bipyridinyl-5′-ylmethyl)-propionamide], in that order: 4.64, 4.94 and 4.42.
As to `CC(C)(C)C(=O)N(Cc1ccc(N2CCN(c3ccccn3)CC2)nc1)c1ccc(F)cc1` [Compound 25, N-(4-Fluorophenyl)-2,2-dimethyl-N-[6-(4-pyridin-2-yl-piperazin-1-yl)-pyridin-3-ylmethyl]-propionamide], the pIC50 was 5.38 in experiment [1], 6.52 in experiment [2] (setting [4]) and 5.62 in experiment [2] (setting [5]).
Regarding `CN1CCN(c2ccc(CN(C(=O)C(C)(C)C)c3ccc(F)cc3)cn2)CC1` [Compound 17, N-(4-Fluorophenyl)-N-[6-(4-methyl-piperazin-1-yl)-pyridin-3-ylmethyl)-2,2-dimethyl-propionamide], the pIC50 in experiment [1] was 4.38.
Take `CCN(CC)c1nc(CN(C(=O)C(C)(C)C)c2ccc(F)cc2)cs1` [Compound 64, N-(2-Diethylamino-thiazol-4-ylmethyl)-N-(4-fluorophenyl)-2,2-dimethyl-propionamide]: the results for the pIC50 in experiment [1], in experiment [2] (setting [4]) and in experiment [2] (setting [5]) were 4.74, 5.62 and 5.22, respectively.
For the compound `CN1CCN(c2ccc(CN(C(=O)NC(C)(C)C)c3ccc(F)cc3)cn2)CC1` [Compound 11, 3-tert-butyl-1-(4-fluorophenyl)-1-(6-(4-methyl-piperazin-1-yl)-pyridin-3-ylmethyl)-urea hydrochloride], the pIC50 in experiment [1] was 4.36.
As to `Cc1cc(C)cc(N(Cc2ccc(N3CCN(C)CC3)nc2)C(=O)C(C)(C)C)c1` [Compound 32, N-(3,5-dimethylphenyl)-2,2-dimethyl-N-[6-(4-methyl-piperazin-1-yl)-pyridin-3-ylmethyl]-propionamide], the results for the pIC50 in experiment [1], in experiment [2] (setting [4]) and in experiment [2] (setting [5]) were 4.67, 5.59 and 4.61, respectively.
For the compound `CCN(c1ccc(CN(C(=O)C(C)(C)C)c2ccc(F)cc2)cn1)C1CC1` [Compound 7, N-(6-(Cyclopropyl(ethyl)amino)-pyridin-3-ylmethyl)-N-(4-fluorophenyl)-2,2-dimethyl-propionamide], the pIC50 is 5.10 in experiment [1], 5.77 in experiment [2] (setting [4]) and 4.89 in experiment [2] (setting [5]).
As to `CCN(CC)c1ccc(CN(C(=O)C(C)(C)CC)c2ccc(F)cc2)cn1` [Compound 31, N-(6-Diethylamino-pyridin-3-ylmethyl)-N-(4-fluorophenyl)-2,2-dimethyl-butyramide], the figures for the pIC50 in experiment [1], in experiment [2] (setting [4]) and in experiment [2] (setting [5]) were 5.18, 5.89 and 5.26, respectively.
For `CCC(C)(C)C(=O)N(Cc1ccc(N(C)CCc2ccccn2)nc1)c1ccc(F)cc1` [Compound 24, N-(4-Fluorophenyl)-2,2-dimethyl-N-{6-[methyl-(2-pyridin-2-yl-ethyl)-amino]-pyridin-3-ylmethyl}-butyramide], the pIC50 in experiment [1] is 5.42; in experiment [2] (setting [4]), 6.22; in experiment [2] (setting [5]) it was 5.54.
Consider `CCN(CC)c1ncc(CN(C(=O)C(C)(C)C)c2ccc(F)cc2)cn1` [Compound 84, N-(2-Diethylamino-pyrimidin-5-ylmethyl)-N-(4-fluorophenyl)-2,2-dimethyl-propionamide], for which the results for the pIC50 in experiment [1], in experiment [2] (setting [4]) and in experiment [2] (setting [5]) were 4.81, 5.92 and 5.37, respectively.
As for `CN(CCN1CCOCC1)c1ccc(CN(C(=O)C(C)(C)C)c2ccc(F)cc2)cn1` [Compound 20, N-(4-Fluorophenyl)-2,2-dimethyl-N-{6-[methyl-(2-morpholin-4-yl-ethyl)-amino]-pyridin-3-ylmethyl}-propionamide], the figures for the pIC50 in experiment [1], in experiment [2] (setting [4]) and in experiment [2] (setting [5]) were 4.45, 5.28 and 4.65, respectively.
For the compound `CN(C)c1ccc(N(Cc2csc(N(C)c3ccc(F)cc3)n2)C(=O)C(C)(C)C)cc1` [Compound 81, N-(4-Dimethylamino-phenyl)-N-{2-[(4-fluorophenyl)-methyl-amino]-thiazol-4-ylmethyl}-2,2-dimethyl-propionamide], the pIC50 in experiment [1] is 5.77; in experiment [2] (setting [4]), 6.22; in experiment [2] (setting [5]) it was 5.70.
`CN(C)c1ccc(N(Cc2cnc(N3CCCCC3)nc2)C(=O)C(C)(C)C)cc1` [Compound 85, N-(4-Dimethylamino-phenyl)-2,2-dimethyl-N-(2-piperidin-1-yl-pyrimidin-5-ylmethyl)-propionamide]: the figures for the pIC50 in experiment [1], in experiment [2] (setting [4]) and in experiment [2] (setting [5]) were 4.79, 5.72 and 5.13, respectively.
On to `CN(c1ccccn1)c1nc(CN(C(=O)C(C)(C)C)c2ccc(F)cc2)cs1` [Compound 93, N-(4-Fluorophenyl)-2,2-dimethyl-N-[2-(methyl-pyridin-2-yl-amino)-thiazol-4-ylmethyl]-propionamide], for which the pIC50 in experiment [1] is 4.64; in experiment [2] (setting [4]), 6.40; in experiment [2] (setting [5]), 6.10.
On to `CCN(CC)c1ccc(CN(C(=O)C(C)(C)C)c2ccc(F)cc2)cn1` [Compound 3, N-(6-diethylamino-pyridin-3-ylmethyl)-N-(4-fluorophenyl)-2,2-dimethyl-propionamide trifluoroacetate], for which the pIC50 in experiment [1] was 4.92; in experiment [2] (setting [4]), 5.89; in experiment [2] (setting [5]), 5.37.
As to `CC(C)(C)C(=O)N(Cc1ccc(N2CCC(N3CCCC3)CC2)nc1)c1ccc(F)cc1` [Compound 34, N-(4-Fluorophenyl)-2,2-dimethyl-N-(4-pyrrolidin-1-yl-3,4,5,6-tetrahydro-2H-[1,2′]bipyridinyl-5′-ylmethyl)-propionamide], the results for the pIC50 in experiment [1], in experiment [2] (setting [4]) and in experiment [2] (setting [5]) were 4.71, 5.62 and 5.26, respectively.
`CN1CCN(c2ccc(CN(C(=O)C3CCCO3)c3ccc(F)cc3)cn2)CC1` (centres unmarked) [Compound 16, TETRAHYDRO-FURAN-2-CARBOXYLIC ACID (4-FLUOROPHENYL)-(6-(4-METHYL-PIPERAZIN-1-YL)-PYRIDIN-3-YLMETHYL)-AMIDE TRIFLUOROACETATE]: the pIC50 in experiment [1] is 4.07.
Consider `O=C(C1CCOC1)N(Cc1ccc(N2CCN(c3ccccn3)CC2)nc1)c1ccc(F)cc1` (centres unmarked) [Compound 111, Tetrahydro-furan-3-carboxylic acid (4-fluorophenyl)-[6-(4-pyridin-2-yl-piperazin-1-yl)-pyridin-3-ylmethyl]-amide], for which the pIC50 was 4.63 in experiment [1], 5.68 in experiment [2] (setting [4]) and 4.73 in experiment [2] (setting [5]).
Take `CC(C)(C)C(=O)N(Cc1ccc(N2CCCCC2)nc1)c1ccc(F)cc1` [Compound 70, N-(4-Fluorophenyl)-2,2-dimethyl-N-(3,4,5,6-tetrahydro-2H-[1,2′]bipyridinyl-5′-ylmethyl)-propionamide]: the pIC50 was 5.01 in experiment [1], 5.72 in experiment [2] (setting [4]) and 4.92 in experiment [2] (setting [5]).
`Cc1cc(F)ccc1N(Cc1ccc(N2CCN(C)CC2)nc1)C(=O)C(C)(C)C` [Compound 21, N-(4-Fluoro-2-methyl-phenyl)-2,2-dimethyl-N-[6-(4-methyl-piperazin-1-yl)-pyridin-3-ylmethyl]-propionamide]: the pIC50 in experiment [1] was 4.74; in experiment [2] (setting [4]) it was 5.57; in experiment [2] (setting [5]), 4.98.
Take `CC(C)(C)C(=O)N(Cc1cnc(N2CCCCC2)nc1)c1ccc(F)cc1` [Compound 8, N-(4-fluorophenyl)-2,2-dimethyl-N-(2-piperidin-1-yl-pyrimidin-5-ylmethyl)-propionamide hydrochloride]: the pIC50 in experiment [1] is 5.06; in experiment [2] (setting [4]) it was 5.80; in experiment [2] (setting [5]), 5.29.
For the compound `CCN(CC)c1ccc(CN(C(=O)C2CCOC2)c2ccc(F)cc2)cn1` (centres unmarked) [Compound 112, Tetrahydro-furan-3-carboxylic acid (6-diethylamino-pyridin-3-ylmethyl)-(4-fluorophenyl)-amide], the pIC50 in experiment [1] is 4.43.
The compound `CCN(CC)c1ccc(CN(C(=O)C2CCOCC2)c2ccc(F)cc2)cn1` [Compound 113, Tetrahydro-pyran-4-carboxylic acid (6-diethylamino-pyridin-3-ylmethyl)-(4-fluorophenyl)-amide] gave a pIC50 in experiment [1] of 4.52.
In turn, `CN1CCN(c2ccc(CN(C(=O)C3CC3)c3ccc(F)cc3)cn2)CC1` [Compound 103, Cyclopropanecarboxylic acid (4-fluorophenyl)-[6-(4-methyl-piperaizn-1-yl)-pyridin-3-ylmethyl]-amide] showed a pIC50 in experiment [1] of 3.89.
Regarding `CC(C)(C)C(=O)N(Cc1csc(Nc2ccccc2F)n1)c1ccc(F)cc1` [Compound 159, N-(4-fluorophenyl)-N-({2-[(2-fluorophenyl)amino]-1,3-thiazol-4-yl}methyl)-2,2-dimethylpropanamide], in experiment [3], the pIC50 is 4.99.
In experiment [3], `CC1CN(c2nc(CN(C(=O)C(C)(C)C)c3ccc(F)cc3)cs2)CC(C)O1` (centres unmarked) [Compound 239, 2,2-dimethylpropanamide N-{[2-(2,6-dimethylmorpholin-4-yl)-1,3-thiazol-4-yl]methyl}-N-(4-fluorophenyl)-] had a pIC50 of 5.47.

For the origin of these results see patent US20100267697A1, “ION CHANNEL MODULATORS” (Wyeth, priority 2006, published 2010).
